Source: patent publication US20250262192A1, “PROGNOSTIC PATHWAYS FOR HIGH RISK SEPSIS PATIENTS” (KONINKLIJKE PHILIPS N.V., priority 2021, published 2025)
Where “and” joins values, the source holds several entries; their conditions need not be identical. Equal values may be shown once. Entries after “also recorded” stand apart in the source; their conditions may differ.

What was measured:
TGFbeta pathway [1] = assay: PBMCs of sepsis patients treated in vitro 24 hours with inhibitors, pathway activity score; assay type: cell-based, human; parameters: scale not given here
Protocol: (§1) PBMC samples from healthy volunteers and sepsis patients were obtained via Tissue solutions. Briefly, cryopreserved PBMCs were first washed with washing buffer (PBS/1% BSA/2 mM EDTA), centrifuged and pellet resuspended in culture medium (RPM11640 without phenol red+8.5% charcoal stripped FBS+1% Glx+1% p/s). 0.5·10^5-1·10^6 cells were seeded per well in 24 wells plate and rested for 1 hour before treatment experiment. 10 PBMC samples from healthy donors were used to; (1) measure the baseline pathway levels, (2) activate with LPS
(§2) Sepsis treatment model: PBMC derived from sepsis patients (n=20) were treated 24 hours with compounds, DMSO or combination of compounds. (PBMC from healthy and sepsis patients are originating from the same hospital to minimize bias in sample prep). After stimulation cells were harvested and RNA was extracted using the RNeasy mini kit (Qiagen, 74104). qPCR was performed using the Philips Research OncoSignal platform.
(§3) In total 18 PBMCs sepsis samples were treated for 24 hours with selected inhibitors (and combinations), 6 patient samples per experiment.

AR pathway [2] = assay: PBMCs of healthy volunteers stimulated with LPS with or without drugs, pathway activity score; assay type: cell-based, human; conditions: for AR PAS: PBMCs of individual healthy volunteers; for Healthy volunteers showing AR PAS decrease: experiment 2, PBMCs, LPS 0.5 ng/ml + drug, Etanercept: not significantly
Protocol: (§4) Sepsis treatment model: For the treatment application, the drug and LPS were added simultaneously to the cells for 24 hours. Compounds and concentrations are described in Table 11 and Table 12 for healthy volunteer PBMCs.
as §1
(§5) PBMCs of healthy volunteers were stimulated with 5 ng/ml LPS for 24 hours in combination with (R)-Bicalutamide and (R)-Bicalutamide+Vactosertib (experiment 1). In experiment 2, (R)-Bicalutamide and etanercept were tested with 0.5 ng/ml LPS (Table 12A for exp 1 and Table 12B for exp 2).

TGFbeta pathway [3] = assay: as above; assay type: cell-based, human; conditions: for TGFbeta PAS: PBMCs of individual healthy volunteers; for Healthy volunteers showing TGFbeta PAS decrease: experiment 2, PBMCs, LPS 0.5 ng/ml + drug, Etanercept: not significantly
Protocol: as §4, §1, §5

[4] = test system: TGFbeta signaling pathway; assay: THP-1 sepsis treatment model, qPCR-based STP activity score; assay type: cell-based; conditions: for Effect on TGFbeta PAS in LPS-stimulated THP-1 monocytes: THP-1 monocyte sepsis treatment model (Table 11); for Average TGFb STP activity score: 24 hours
Protocol: (§6) In the treatment model the pathway inhibitor and LPS were added at the same time and the THP-1 cells were incubated for 24 hours prior to isolating RNA and determining pathway activities.
(§7) For the first application, THP-1 cells were pre-incubated for 24 hours with the drug of choice, and subsequently LPS was added for 24 hours. For the treatment application, the drug and LPS were added simultaneously to the cells for 24 hours. Importantly: Some drugs needs processing in the body to become effective, this is the case for some of the androgen receptor (AR) pathway inhibitors, such as bicalutamide. In this case we have also tested the active variant of the drug (in the case of bicalutamide: (R-)bicalutamide).
(§8) LPS is considered the main mediator of the sepsis symptoms. An in vitro experiment was designed where monocytes were stimulated with LPS and subsequently treated with a variety of inhibitors. Monocytes were chosen as they have been described to play a major role in sepsis, see for example Sukhacheva, [34], Clinical Laboratory Int. 26 Aug.
as §4
(§9) After stimulation cells were harvested and RNA was extracted using the RNeasy mini kit (Qiagen, 74104). qPCR-based STP activity scores were calculated using the Philips Research OncoSignal platform (www.philips.com/oncosignal), as described herein.
(§10) Two concentrations of LPS 0.5 and 5 ng/ml were used in the experiments, furthermore for the THP-1 cell line an higher passage number (px-53-55) and a lower passage number (px-13-15) were used (Table 11). the THP-1 cell line with the lower passage was more reactive towards LPS activation compared to the higher passage number (data not shown).

AR signaling pathway = assay: as above; assay type: cell-based; conditions: for Effect on AR PAS in LPS-stimulated THP-1 monocytes: THP-1 monocyte sepsis treatment model (Table 11); for Average AR STP activity score: 24 hours
Protocol: as §6, §7, §8, §4, §9, §10

AR pathway [5] = assay: PBMCs of sepsis patients treated in vitro 24 hours with inhibitors, pathway activity score; assay type: cell-based, human; parameters: AR Pathway activity scores of sepsis PBMC patients: scale not given here
Protocol: as §1, §2, §3

[6] = test system: AR cellular signaling pathway; assay: THP-1 sepsis prevention model, qPCR-based STP activity score; assay type: cell-based
[7] = test system: TGFbeta cellular signaling pathway; assay: as above; assay type: cell-based
[8] = EXP 1, individual patient samples, Vactosertib 1 uM, Vactosertib 1 uM + R-bicalutamide 25 uM, Etanercept 10 ug/ml, R-bicalutamide 25 uM
[9] = experiment 1, PBMCs, LPS 5 ng/ml + drug
[10] = experiment 1, LPS 5 ng/ml 24 hours alone, + (R)-Bicalutamide 25 uM, or + (R)-Bicalutamide 25 uM + Vactosertib 1 uM
[11] = experiment 2, LPS 0.5 ng/ml alone, + Etanercept 10 ug/ml, or + (R)-Bicalutamide 25 uM
[12] = THP-1 px 13-15, LPS 0.5 ng/ml alone or with compound, (R)-Bicalutamide 25 uM, N-desmethyl Enzalutamide 2 uM, N-Desmethyl-Apalutamide 3 uM
[13] = THP-1 px 53-55, LPS 0.5 ng/ml alone or with compound, (R)-Bicalutamide 25 uM, Ketodarolutamide 10 uM, D4-abiraterone 10 uM
[14] = EXP 2, individual patient samples, Resatorvid 10 uM, D4-abiraterone 10 uM, A-485 100 nM, Galunisertib 10 uM
[15] = THP-1 px 13-15, LPS 5 ng/ml alone or with Resatorvid 10 uM
[16] = 24 hrs Vactosertib or DMSO, then 24 hrs LPS
[17] = 24 hrs Vactosertib, then 24 hrs PBS
[18] = THP-1 px 13-15, LPS 0.5 ng/ml alone or with compound, Vactosertib 1 uM, Etanercept 1 ug/ml, R-bicalutamide 25 uM + Etanercept 0.1 ug/ml, R-bicalutamide 25 uM + Filgotinib 10 uM
[19] = THP-1 px 13-15, LPS 0.5 ng/ml alone or with Etanercept 10 ug/ml

Row | Compound | TGFbeta Pathway activity scores of sepsis PBMC patients (TGFbeta pathway [1]; [8]) | Effect on TGFbeta PAS in LPS-stimulated THP-1 monocytes [4] | Average TGFb STP activity score [4, 12] | Average TGFb STP activity score [4, 13] | Effect on AR PAS in LPS-stimulated THP-1 monocytes (AR signaling pathway) | Average AR STP activity score (AR signaling pathway; [12]) | Average AR STP activity score (AR signaling pathway; [13]) | AR Pathway activity scores of sepsis PBMC patients (AR pathway [5]; [8]) | AR Pathway activity scores of sepsis PBMC patients (AR pathway [5]; [14]) | further results
1 | C[C@](O)(CS(=O)(=O)c1ccc(F)cc1)C(=O)Nc1ccc(C#N)c(C(F)(F)F)c1 [(R)-Bicalutamide] | 31 and 32 | could lower | 14.00 normalized scores | 11.67 normalized scores | could reduce | 6.67 normalized scores | 1.67 normalized scores | 21 |  | Healthy volunteers showing AR decrease (AR pathway [2]; [9]): 3 out of 6; AR PAS (AR pathway [2]; [10]): 29 and 26 (2×) and 30 and 25 and 21; Healthy volunteers showing AR PAS decrease (AR pathway [2]): 3 out of 4; AR PAS (AR pathway [2]; [11]): 26 and 28 and 30 and 24; Healthy volunteers showing TGFbeta decrease (TGFbeta pathway [3]; [9]): 3 out of 6; TGFbeta PAS (TGFbeta pathway [3]; [10]): 29 and 32 and 35 and 31 and 27 and 40; Healthy volunteers showing TGFbeta PAS decrease (TGFbeta pathway [3]): 3 out of 4; TGFbeta PAS (TGFbeta pathway [3]; [11]): 31 and 35 and 33 and 32
2 | C[C@]12CCC(=O)C=C1CC[C@@H]1[C@@H]2CC[C@]2(C)C(c3cccnc3)=CC[C@@H]12 [D4-abiraterone] |  | could lower |  | 11.67 normalized scores | could reduce |  | 2.67 normalized scores |  | 24 (3×) and 33 | TGFbeta Pathway activity scores of sepsis PBMC patients (TGFbeta pathway [1]; [14]): 32 and 41 and 36 and 40
3 | O=C(Nc1nc2cccc(-c3ccc(CN4CCS(=O)(=O)CC4)cc3)n2n1)C1CC1 [Filgotinib] |  | could lower |  |  |  |  |  |  |  | 
4 | Cc1cccc(-c2nn3c(c2-c2ccnc4ccc(C(N)=O)cc24)CCC3)n1 [Galunisertib] |  |  |  |  |  |  |  |  | 23 | 
5 | CC(=O)c1cc(C(=O)N[C@@H](C)Cn2ccc(-c3ccc(C#N)c(Cl)c3)n2)[nH]n1 [Ketodarolutamide] |  |  |  | 12.00 normalized scores | could reduce |  | 2.33 normalized scores |  |  | 
6 | N#Cc1ncc(N2C(=O)C3(CCC3)N(c3ccc(C(N)=O)c(F)c3)C2=S)cc1C(F)(F)F [N-Desmethyl-Apalutamide] |  |  | 13.33 normalized scores |  | could reduce | 7.33 normalized scores |  |  |  | 
7 | CC1(C)C(=O)N(c2ccc(C#N)c(C(F)(F)F)c2)C(=S)N1c1ccc(C(N)=O)c(F)c1 [N-desmethyl Enzalutamide] |  |  | 13.33 normalized scores |  | could reduce | 6.67 normalized scores |  |  |  | 
8 | CCOC(=O)C1=CCCC[C@H]1S(=O)(=O)Nc1ccc(F)cc1Cl [Resatorvid] |  | could lower; also recorded: could be lowered |  |  | could reduce; also recorded: could be lowered |  |  |  | 24 and 31 | TGFbeta Pathway activity scores of sepsis PBMC patients (TGFbeta pathway [1]; [14]): 31 and 37 and 35 and 34; Average TGFb STP activity score [4, 15]: 8.00 normalized scores; Average AR STP activity score (AR signaling pathway; [15]): 3.67 normalized scores
9 | Cc1cccc(-c2[nH]c(CNc3ccccc3F)nc2-c2ccc3ncnn3c2)n1 [Vactosertib] | 31 |  |  |  |  |  |  | 21 and 22 |  | Average PAS AR [6, 16]: 17.1 normalized scores; Average PAS AR [6, 17]: 3.8 normalized scores; Effect on the AR signaling pathway ([6]; Vactosertib pretreatment followed by LPS): No effect; Average TGFb STP activity score [4, 18]: 12.00 normalized scores; Average AR STP activity score (AR signaling pathway; [18]): 8.67 normalized scores; Average PAS TGFbeta [7, 16]: 9.3 normalized scores; Average PAS TGFbeta [7, 17]: 1.7 normalized scores; Patients showing reduction in the AR pathway (not significant) (AR pathway [5]; sepsis patient PBMCs, Etanercept 10 ug/ml in combination): 2/3
10 | Etanercept | 42 and 30 and 31 | could lower; also recorded: could be lowered |  |  | could reduce; also recorded: could be lowered |  |  | 28 and 20 |  | Healthy volunteers showing AR PAS decrease (AR pathway [2]): 2 out of 4; AR PAS (AR pathway [2]; [11]): 21 and 31 (2×) and 18; Healthy volunteers showing TGFbeta PAS decrease (TGFbeta pathway [3]): 3 out of 4; TGFbeta PAS (TGFbeta pathway [3]; [11]): 29 and 34 and 31 (2×); Average TGFb STP activity score [4, 19]: 11.33 normalized scores; Average TGFb STP activity score [4, 18]: 9.67 normalized scores and 11.67 normalized scores; Average AR STP activity score (AR signaling pathway; [19]): 6.33 normalized scores; Average AR STP activity score (AR signaling pathway; [18]): 5.00 normalized scores and 6.00 normalized scores
